This is an account of results in patent US20090028925A1, “Novel Phosphinic Acid-Containing Thyromimetics” (priority 2005, published 2009).

Data set [1] addresses T1, human thyroid hormone receptors TRα1 (Homo sapiens, UniProt P10827).
T1 construct: made in house; host or cells: Sf9 insect cells (baculovirus)
T1 sequence (P10827 1-410 isoform P10827-2): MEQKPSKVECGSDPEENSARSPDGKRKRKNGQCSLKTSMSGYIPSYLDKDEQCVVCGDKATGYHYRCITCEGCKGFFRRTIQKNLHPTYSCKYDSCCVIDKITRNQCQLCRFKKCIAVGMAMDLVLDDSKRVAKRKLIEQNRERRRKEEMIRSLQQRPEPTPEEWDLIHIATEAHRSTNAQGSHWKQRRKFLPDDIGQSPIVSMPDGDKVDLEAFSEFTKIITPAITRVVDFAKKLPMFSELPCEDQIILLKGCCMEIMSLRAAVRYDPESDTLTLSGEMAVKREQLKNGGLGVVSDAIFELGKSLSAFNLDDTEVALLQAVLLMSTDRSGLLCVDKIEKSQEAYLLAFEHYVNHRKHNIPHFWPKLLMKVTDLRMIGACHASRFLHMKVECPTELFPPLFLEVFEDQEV
T1 sequence (P19793 1-462 partner): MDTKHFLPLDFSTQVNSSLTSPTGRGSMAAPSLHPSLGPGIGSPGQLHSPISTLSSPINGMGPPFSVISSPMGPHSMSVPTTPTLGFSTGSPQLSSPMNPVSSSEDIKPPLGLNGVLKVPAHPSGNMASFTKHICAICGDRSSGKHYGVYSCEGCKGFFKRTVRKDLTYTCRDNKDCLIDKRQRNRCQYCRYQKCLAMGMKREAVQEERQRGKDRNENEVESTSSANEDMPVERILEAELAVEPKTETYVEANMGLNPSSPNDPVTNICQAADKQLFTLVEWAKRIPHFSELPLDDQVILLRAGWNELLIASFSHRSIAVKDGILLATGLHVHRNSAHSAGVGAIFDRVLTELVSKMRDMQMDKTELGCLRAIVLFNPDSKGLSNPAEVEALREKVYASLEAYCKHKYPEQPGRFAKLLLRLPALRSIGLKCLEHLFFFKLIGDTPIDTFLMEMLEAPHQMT
In words: Receptor binding to TRα1 (gel filtration and scintillation proximity assay, labeled T3). Particulars: SPA data; read-out: Ki TRα.

In data set [2] the target is T2, human thyroid hormone receptors TRβ1 (Homo sapiens, UniProt P10828).
T2 construct: made in house; host or cells: Sf9 insect cells (baculovirus)
T2 sequence (P10828 1-461): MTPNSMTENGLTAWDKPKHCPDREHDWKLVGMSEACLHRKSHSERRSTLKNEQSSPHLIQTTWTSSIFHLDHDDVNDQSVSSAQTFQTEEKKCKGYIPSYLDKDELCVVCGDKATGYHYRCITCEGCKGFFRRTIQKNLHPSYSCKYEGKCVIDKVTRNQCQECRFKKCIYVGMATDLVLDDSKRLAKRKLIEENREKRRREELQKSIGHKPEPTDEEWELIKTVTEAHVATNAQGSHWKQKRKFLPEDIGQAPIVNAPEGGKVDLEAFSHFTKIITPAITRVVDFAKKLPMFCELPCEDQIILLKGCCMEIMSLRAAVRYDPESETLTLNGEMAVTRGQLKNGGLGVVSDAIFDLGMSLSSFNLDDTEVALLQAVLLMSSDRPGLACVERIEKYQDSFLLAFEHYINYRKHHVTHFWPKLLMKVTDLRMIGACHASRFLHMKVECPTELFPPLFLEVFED
T2 sequence (P19793 1-462 partner): T1 sequence (P19793 1-462 partner)
The experiment in a line: Receptor binding to TRβ1 (gel filtration and scintillation proximity assay, labeled T3). Particulars: SPA data; read-out: Ki TRβ.

Data set [3] deals with plasma cholesterol. In words: Cholesterol lowering in hypercholesterolemic rats. Format: in vivo. The note with it: Rattus norvegicus, po, read-out: % Cholesterol Lowering.
Data set [4] is described as follows: Continuous infusion study in rats on a cholesterol-containing diet. Format: in vivo. The note with it: continuous infusion 1 mg/kg/day; for cholesterol lowering effects: day 7 and day 14; for cardiovascular parameters (heart rate, LV dP/dt, systolic and diastolic blood pressure): day 7 or day 14.
Method: Screening for thyromimetic activity was performed in normal rats maintained on a cholesterol-containing diet. Compounds were administered by continuous infusion using an osmotic pump at 1 mg/kg/day.
Data set [5] can be described thus: Prodrug activation in rat liver microsomes. The note with it: for Vmax: dexamethasone treated rat microsomes, formation of Compound 7; for microsomal CLint: rat, liver microsomes from dexamethasone-treated rats, intrinsic clearance calculated from the kinetic parameters. Format: in vitro ADME. The text has this:
(§1) The purpose of these studies was to determine the kinetics of activation of prodrugs of thyromimetics in microsomal preparations. Microsomes contain the P450 enzyme that is required for the activation of many of the prodrugs prepared. The Km, Vmax, and intrinsic clearance values determined are measures of prodrug affinity for the microsomal enzymes, the rate at which the prodrug is activated, and the catalytic efficiency with which the prodrug is activated, respectively.
(§2) Methods: Activation of prodrugs by dexamethasone treated rat hepatocyte microsomes. Microsomes were isolated by standard differential centrifugation methods from dexamethasone-treated rats. The treatment is to increase cytochrome P450-3A (CYP3A4) activity. Induction of CYP3A4 was confirmed by an increase in testosterone hydroxylation.
(§3) Various concentrations of HepDirect™ Compound 7 were incubated with rat hepatocytes microsomes. Compound 7 formation was analyzed by HPLC using UV-Vis detection. Kinetic parameters (Vmax and Km) were calculated from the transformed data and the intrinsic clearance calculated from the kinetic parameters.

Data set [6] relates to CYP3A (cytochrome P450-3A (CYP3A4)). The experiment in a line: Prodrug activation in rat liver microsomes. Particulars: liver microsomes from dexamethasone-treated rats; dexamethasone treated rat microsomes, formation of Compound 7. The data set is classed as in vitro ADME.
From the text: as §1, §2, §3
In general terms: Liver microsomes are vesicles of endoplasmic reticulum, rich in cytochrome P450 enzymes.

For data set [7] the following is noted: effects on cholesterol and TSH at the same or not pharmacologically different doses; cited from earlier work.
Details of data set [8]: species or system rats. The note with it: in vivo, po. Here is the method: The oral bioavailability (OBAV) of Compound 12-1, a bis POM prodrug of Compound 7, was estimated by comparison of the dose-normalized area under the curve (AUC) of the plasma concentration-time profile of Compound 7 following IV and PO administration of Compound 7 and Compound 12-1, respectively, to normal rats.
Method: Groups of non-fasted male SD rats were administered either 5 mg/kg of Compound 7 by IV bolus or 20 mg/kg of Compound 12-1 by oral gavage. Prior to drug administration, the rats were catheterized at the tail artery to facilitate blood collection. Plasma samples were obtained at pre-specified time points following dosing, extracted with 1.5 volumes of methanol, and then assayed by an LC-UV method using a C18 column eluted with a gradient of 20% to 45% v/v acetonitrile in a potassium phosphate buffer pH 6.2 over 15 min with UV absorbance monitoring at 280 nm. The AUC values were determined noncompartmentally from the plasma concentration-time plots by trapezoidal summation to the last measurable time point.
Plasma levels of compound were analyzed by HPLC and the AUCs for the i.v. dose of 5 mg/kg and the p.o. dose of 20 mg/kg were compared. The maximum OBAV for Compound 19-2 was 0.003%. Typically, compounds that are taken forward as an oral drug candidate have OBAV values of at least 15-20%, when tested in an animal model. This minimal requirement for OBAV in a genetically homogenous model system insures that exposure can be accurately monitored when humans are treated with the compound. Furthermore, in a genetically variable background such as humans, the variability for a compound with low OBAV in genetically homogenous model systems, can be widely variable, leading some subjects to have much higher than anticipated exposure, while other subjects have no exposure.

Where two headings read alike, the source gives them in different places.

For orientation: Ki means the equilibrium dissociation constant of an inhibitor or competing ligand from its target. As for `COP(=O)(O)COc1cc(C)c(Cc2ccc(O)c(C(C)C)c2)c(C)c1` [Compound 69, [3,5-dimethyl-4-(4′-hydroxy-3′-iso-propylbenzyl)phenoxy]methylphosphonic acid monomethyl ester], the Ki in data set [1] amounted to 0.0135 µM. In addition, the inhibitory constant (Ki) in data set [2] was 0.003 µM. For the same compound, the change in vivo at 0.2 mg/kg/day in data set [3] was -41.9%. In data set [4], the cholesterol lowering effects result is listed as “demonstrated cholesterol lowering effects”; the “cardiovascular parameters (heart rate, LV dP/dt, systolic and diastolic blood pressure)” value is given as “no changes in any of the cardiovascular parameters”.

For orientation: Vmax means the rate approached at saturating substrate. As usually defined, the microsomal CLint is a measure of how fast metabolising enzymes remove a compound, apart from limits set by blood flow. As usually defined, the Km is the substrate concentration at which the rate is half of its maximum. In the case of `Cc1cc(OC[P@@]2(=O)OCC[C@@H](c3cccc(F)c3)O2)cc(C)c1Cc1ccc(O)c(C(C)C)c1` [Compound 13-3-cis], the Ki in data set [1] is 2.84 µM. The Ki in data set [2] worked out at 3.43 µM. In addition, in data set [5], the “Vmax” value came to 2118 pmol/min/mg and the microsomal CLint is 46 µL/min/mg. In addition, the Michaelis constant (Km) in data set [6] is 46 µM.

On to `Cc1cc(OC[P@]2(=O)OCC[C@H](c3ccc(Cl)cc3)O2)cc(C)c1Cc1ccc(O)c(C(C)C)c1` [Compound 13-6-cis, 2-[(3,5-dimethyl-4-(4′-hydroxy-3′-iso-propylbenzyl)phenoxy)methyl]-4-(4-chlorophenyl)-2-oxo-2λ^5-[1,3,2]-dioxaphosphonane], for which, in data set [1], the inhibition constant (Ki) turned out to be 4.71 µM. Besides, the Ki in data set [2] is 3.59 µM. In data set [5], the “Vmax” value is recorded as 598 pmol/min/mg and the microsomal CLint is 62 µL/min/mg. In data set [6], the Km is 10 µM.

On to `Cc1cc(OCP(=O)(OCOC(=O)OC(C)C)OCOC(=O)OC(C)C)cc(C)c1Cc1ccc(O)c(C(C)C)c1` [Compound 12-3, di(isopropoxycarbonyloxymethyl)[3,5-dimethyl-4-(4′-hydroxy-3′-iso-propylbenzyl)phenoxy]methylphosphonate], for which the Ki in data set [1] is 0.738 µM. Further, the inhibition constant Ki in data set [2] was determined as 0.156 µM. For the same compound, in data set [5], the “Vmax” value stood at 775 pmol/min/mg and the microsomal CLint was 54 µL/min/mg. In addition, in data set [6], the Michaelis-Menten constant (Km) turned out to be 14 µM.

Consider `Cc1cc(OCC(=O)O)cc(C)c1Cc1ccc(O)c(C(C)C)c1` [GC-1, [4-[[4-hydroxy-3-(1-methylethyl)phenyl]methyl]-3,5-dimethylphenoxy]acetic acid], for which, in data set [7], the TSH levels entry is on record as “dose-dependently lower” and the cholesterol levels entry was “dose-dependently lower”.

Consider `Cc1cc(OC[P@@]2(=O)OCC[C@@H](c3ccncc3)O2)cc(C)c1Cc1ccc(O)c(C(C)C)c1` [Compound 13-5-cis, 2-[(3,5-dimethyl-4-(4′-hydroxy-3′-iso-propylbenzyl)phenoxy)methyl]-4-(pyrid-4-yl)-2-oxo-2λ^5-[1,3,2]-dioxaphosphonane], for which the Ki in data set [1] was found to be 4.43 µM; in data set [2], 1.01 µM. For the same compound, the “Vmax” value in data set [5] is listed as 3266 pmol/min/mg. For the same compound, the microsomal CLint in data set [5] was 29 µL/min/mg. In data set [6], the Km came to 113 µM.

`CC(C)c1cc(Oc2c(Br)cc(CP(=O)(O)O)cc2Br)ccc1O` [Compound 19-2, [3,5-dibromo-4-(4′-hydroxy-3′-iso-propylphenoxy)]benzylphosphonic Acid]: the Ki in data set [1] was 0.343 µM; in data set [2] it was 0.02 µM. Also, in data set [8], the “absorption in the rat” value was “not adequately absorbed”.

On to `Cc1cc(OCP(C)(=O)O)cc(C)c1Cc1ccc(O)c(C(C)C)c1` [Compound 70, [3,5-dimethyl-4-(4′-hydroxy-3′-iso-propylbenzyl)phenoxymethyl]methylphosphinic acid], for which the Ki in data set [1] came out at 0.183 µM; in data set [2] it was 0.0054 µM. For the same compound, the change in vivo at 0.2 mg/kg/day in data set [3] (delivered p.o. (0.2 mg/kg/d), percentage change from pre-dose cholesterol) was -32.8%. In addition, in data set [4], the cholesterol lowering effects result is on record as “demonstrated cholesterol lowering effects”. Moreover, the “cardiovascular parameters (heart rate, LV dP/dt, systolic and diastolic blood pressure)” value in data set [4] is listed as “no changes in any of the cardiovascular parameters”.

`Cc1cc(OC[P@@]2(=O)OCC[C@@H](c3cccc(Br)c3)O2)cc(C)c1Cc1ccc(O)c(C(C)C)c1` [Compound 13-2-cis, 2-[(3,5-dimethyl-4-(4′-hydroxy-3′-iso-propylbenzyl)phenoxy)methyl]-4-(3-bromophenyl)-2-oxo-2λ^5-[1,3,2]-diox aphosphonane]: the Ki in data set [1] came to 0.488 µM; in data set [2] it was 0.419 µM. The “Vmax” value in data set [5] amounted to 694 pmol/min/mg. In addition, the microsomal CLint in data set [5] was 86 µL/min/mg. Also, in data set [6], the Km is 8 µM.

Turning to `Cc1cc(OCP(=O)(OCOC(=O)C(C)(C)C)OCOC(=O)C(C)(C)C)cc(C)c1Cc1ccc(O)c(C(C)C)c1` [Compound 12-1, di(pivaloyloxymethyl) [3,5-Dimethyl-4-(4′-hydroxy-3′-iso-propylbenzyl)phenoxy]methylphosphonate], the Ki in data set [1] turned out to be 1.67 µM; in data set [2] it was 0.662 µM. For the same compound, the “absorption in the rat” value in data set [8] is “adequately absorbed”.

Consider `Cc1cc(OC[P@@]2(=O)OCC[C@@H](c3cccnc3)O2)cc(C)c1Cc1ccc(O)c(C(C)C)c1` [Compound 13-4-cis, 2-[(3,5-dimethyl-4-(4′-hydroxy-3′-iso-propylbenzyl)phenoxy)methyl]-4-(pyrid-3-yl)-2-oxo-2λ^5-[1,3,2]-dioxaphosphonane], for which the Ki in data set [1] was 5.53 µM; in data set [2] it was 1.52 µM. Also, in data set [5], the maximal velocity (Vmax) stood at 2983 pmol/min/mg. In addition, in data set [5], the intrinsic metabolic clearance (microsomal CLint) is 30 µL/min/mg. Further, in data set [6], the Michaelis constant (Km) amounted to 100 µM.
